Assays:
Assay type in all cases: cell-based
ACHN = test: NCI-60 one-dose SRB screening; conditions: Homo sapiens, Renal Cancer, 10 µM one dose, 48 h, read-out: growth percentage
CAKI-1 = test: NCI-60 one-dose SRB screening; conditions: Homo sapiens, CAKI-1, Renal Cancer, 10 µM one dose, 48 h, read-out: growth percentage
CCRF-CEM = test: NCI-60 one-dose SRB screening; conditions: Homo sapiens, Leukemia, 10 µM one dose, 48 h, read-out: growth percentage
COLO 205 = test: NCI-60 one-dose SRB screening; conditions: Homo sapiens, COLO 205, Colon Cancer, 10 µM one dose, 48 h, read-out: growth percentage
DU-145 = test: NCI-60 one-dose SRB screening; conditions: Homo sapiens, DU-145, Prostate Cancer, 10 µM one dose, 48 h, read-out: growth percentage
HCT-116 = test: NCI-60 one-dose SRB screening; conditions: Homo sapiens, HCT-116, Colon Cancer, 10 µM one dose, 48 h, read-out: growth percentage
HOP-92 = test: NCI-60 one-dose SRB screening; conditions: Homo sapiens, HOP-92, Non-Small Cell Lung Cancer, 10 µM one dose, 48 h, read-out: growth percentage
HS 578T = test: NCI-60 one-dose SRB screening; conditions: Homo sapiens, Breast Cancer, 10 µM one dose, 48 h, read-out: growth percentage
KM12 = test: NCI-60 one-dose SRB screening; conditions: Homo sapiens, KM12, Colon Cancer, 10 µM one dose, 48 h, read-out: growth percentage
LOX IMVI = test: NCI-60 one-dose SRB screening; conditions: Homo sapiens, Melanoma, 10 µM one dose, 48 h, read-out: growth percentage
MOLT-4 = test: NCI-60 one-dose SRB screening; conditions: Homo sapiens, MOLT-4, Leukemia, 10 µM one dose, 48 h, read-out: growth percentage
NCI/ADR-RES = test: NCI-60 one-dose SRB screening; conditions: Homo sapiens, Ovarian Cancer, 10 µM one dose, 48 h, read-out: growth percentage
OVCAR-8 = test: NCI-60 one-dose SRB screening; conditions: Homo sapiens, OVCAR-8, Ovarian Cancer, 10 µM one dose, 48 h, read-out: growth percentage
SNB-19 = test: NCI-60 one-dose SRB screening; conditions: Homo sapiens, SNB-19, CNS Cancer, 10 µM one dose, 48 h, read-out: growth percentage
SR = test: NCI-60 one-dose SRB screening; conditions: Homo sapiens, Leukemia, 10 µM one dose, 48 h, read-out: growth percentage
TK-10 = test: NCI-60 one-dose SRB screening; conditions: Homo sapiens, TK-10, Renal Cancer, 10 µM one dose, 48 h, read-out: growth percentage
[1] = test system: NCI-59 human cancer cell lines; test: NCI-60 one-dose SRB screening, full panel and subpanels; conditions: for activity at 10 µM: mean over the full panel, 10 µM one dose, 48 h, SRB, read-out: growth percentage, Mean
Protocol: The structures of the synthesized compounds 6a–h, 12a–c, 11, 13a–c, and 14a–c were submitted to the National Cancer Institute’s Developmental Therapeutics Program (NCI-DTP), and all of them were selected for preliminary in vitro anticancer activity screening against NCI-59 human cancer cell lines at a concentration of 10 µM, using the sulforhodamine B (SRB) assay to determine the growth percentage and cell viability.
The in vitro NCI-60 cell line screening assay was conducted at the National Cancer Institute (NCI), Bethesda, USA against 59 cancer cell lines representing 9 types of cancers, as reported earlier. Briefly, the human cancer cell lines were grown in RPMI 1640 medium containing 5% fetal bovine serum and 2 mM L-glutamine and inoculated into 96-well microtiter plates in 100 μL (5000 to 40,000 cells/well). Then, the plates were incubated at 37 °C, 5% CO2, 95% air, and 100% relative humidity for 24 h. After that, two plates of each cell line were fixed in situ with TCA, to represent cell population at time zero (Tz). The tested compounds were dissolved in DMSO at 400-fold and added so that the final concentration became 10 μM. The plates were then incubated for an additional 48 h followed by the addition of cold TCA to terminate the assay in case of adherent cells. Then, the cells were fixed in situ by cold 50% (w/v) TCA (50 μL; final concentration, 10% TCA) and incubated for 1 h at 4 °C. After discarding the supernatant, the plates were washed 5 times with tap water and air dried. Sulforhodamine B (SRB) solution (100 μL) at 0.4% (w/v) in 1% HOAc was added to each well, and plates were incubated for 10 min. at rt. Then, washing with 1% acetic acid was conducted 5 times to remove the unbound dye followed by air drying. After that, 10 mM trizma base was added to solubilize the bound stain, and the absorbance was read on an automated plate reader at a wavelength of 515 nm. On the other hand, the methodology for suspension cells was the same except that 50 μL of 80% TCA (final concentration, 16% TCA) was gently added to terminate the assay by fixing settled cells at the bottom of the wells. Percentage growth inhibition (GI%) was calculated as follows:
Growth percentage=Ti (test growth in the presence of compound at 10 µM )−Tz (time zero)/C (control growth)−Tz (time zero)×100 for Ti ≥ Tz;
Growth percentage=Ti (test growth in the presence of compound at 10 µM )−Tz (time zero)/Tz (time zero)×100 for Ti < Tz.
where values of 100, 40, 0, −40, and −100 mean no GI, 60% GI, no net G, 40% lethality, and all cells are dead, respectively.
Data are expressed as a one-dose mean graph of growth percentages including the mean, delta, and range.

Cc1nn(-c2ccccc2)c2nc(CNc3ccc(NCc4c(-c5ccccc5)no[n+]4[O-])cc3)[nH]c(=O)c12 [14b, 3-(((4-(((3-methyl-4-oxo-1-phenyl-4,5-dihydro-1H-pyrazolo[3,4-d]pyrimidin-6-yl)methyl)amino)phenyl)amino)methyl)-4-phenyl-1,2,5-oxadiazole 2-oxide]
activity at 10 µM (ACHN): 88.8%
activity at 10 µM (CAKI-1): 67.1%
activity at 10 µM (CCRF-CEM): 78.8%
activity at 10 µM (COLO 205): 116%
activity at 10 µM (DU-145): 90.7%
activity at 10 µM (HCT-116): 79%
activity at 10 µM (HOP-92): 93.2%
activity at 10 µM (HS 578T): 104%
activity at 10 µM (KM12): 94.5%
activity at 10 µM (LOX IMVI): 97.6%
activity at 10 µM (MOLT-4): 61.5%
activity at 10 µM (NCI/ADR-RES): 92.4%
activity at 10 µM (OVCAR-8): 117%
activity at 10 µM (SNB-19): 101%
activity at 10 µM (SR): 73%
activity at 10 µM (TK-10): 137%
inhibition at 10 µM ([1]; Homo sapiens, full NCI-59 panel, 10 µM, read-out: mean growth inhibition % (MGI%, GI%)): 8.22%
activity at 10 µM ([1]; Homo sapiens): 91.8%

Cc1nn(-c2ccc(Br)cc2)c2nc(CNc3ccc(NCc4c(-c5ccccc5)no[n+]4[O-])cc3)[nH]c(=O)c12 [14c, 3-(((4-(((1-(4-bromophenyl)-3-methyl-4-oxo-4,5-dihydro-1H-pyrazolo[3,4-d]pyrimidin-6-yl)methyl)amino)phenyl)amino)methyl)-4-phenyl-1,2,5-oxadiazole 2-oxide]
activity at 10 µM (ACHN): 96.9%
activity at 10 µM (CAKI-1): 90.2%
activity at 10 µM (CCRF-CEM): 105%
activity at 10 µM (COLO 205): 115%
activity at 10 µM (DU-145): 107%
activity at 10 µM (HCT-116): 93.8%
activity at 10 µM (HOP-92): 108%
activity at 10 µM (HS 578T): 108%
activity at 10 µM (KM12): 106%
activity at 10 µM (LOX IMVI): 102%
activity at 10 µM (MOLT-4): 87.2%
activity at 10 µM (NCI/ADR-RES): 101%
activity at 10 µM (OVCAR-8): 112%
activity at 10 µM (SNB-19): 102%
activity at 10 µM (SR): 95.2%
activity at 10 µM (TK-10): 132%
activity at 10 µM ([1]; Homo sapiens): 103%
enhancement of the growth percentage (mean) ([1]; full NCI-59 panel, 10 µM): 3.35%

Nc1ccc(NCc2c(-c3ccccc3)no[n+]2[O-])cc1 [compound 11, 3-(((4-aminophenyl)amino)methyl)-4-phenyl-1,2,5-oxadiazole 2-oxide]
activity at 10 µM (ACHN): 104%
activity at 10 µM (CAKI-1): 108%
activity at 10 µM (CCRF-CEM): 83.4%
activity at 10 µM (COLO 205): 121%
activity at 10 µM (DU-145): 112%
activity at 10 µM (HCT-116): 98.4%
activity at 10 µM (HOP-92): 116%
activity at 10 µM (HS 578T): 109%
activity at 10 µM (KM12): 103%
activity at 10 µM (LOX IMVI): 107%
activity at 10 µM (MOLT-4): 91.8%
activity at 10 µM (NCI/ADR-RES): 104%
activity at 10 µM (OVCAR-8): 131%
activity at 10 µM (SNB-19): 110%
activity at 10 µM (SR): 104%
activity at 10 µM (TK-10): 156%
activity at 10 µM ([1]; Homo sapiens): 107%

— paper PMC8880564, “Design, Synthesis, and Biological Evaluation of a Novel VEGFR-2 Inhibitor Based on a 1,2,5-Oxadiazole-2-Oxide Scaffold with MAPK Signaling Pathway Inhibition” (Pharmaceuticals, 2022)
